# Source: patent US20040192554A1, “Technique for effectively treating an agricultural product with a 1-substituted-cyclopropene” (priority 2003, published 2004)
# Key:
# Assay type in all cases: in vivo
# [1] = system: Japanese pear (variety "Shinsei") fruit; assay: Quality deterioration of Japanese pear (Shinsei) fruit after storage, Example 1; settings: 1 ppm, after storage 25 degrees C 2 weeks
# Description: Using a Japanese pear (variety “Shinsei”) fruit (6 fruits were used per group) as an agricultural product, the following experiment was preformed.
# 1) A fruit and 1-methylcyclopropene (concentration 1 ppm (parts per million) in a chamber) were placed into a sealed chamber (volume 30L, same in the following Examples), and contact-treated for 1 hour or 16 hours under a normal pressure.
# 2) A fruit was placed into a sealed chamber, and a pressure in the chamber was reduced to 12.5 kPa. Subsequently, 1-methylcyclopropene was placed therein to the concentration in the chamber of 1 ppm, and contact-treated for 30 minutes or 1 hour under the reduced pressure (12.5 kPa).
# The fruit which had been subjected to treatment of above-mentioned 1) or 2) was stored at 25 degrees C for 2 weeks, and hardness of flesh and pH of a fruit juice which is an index for the content of an acid were measured. In addition, browning of flesh and fruit core, which is an index for an extent of storage disorder was assessed by naked eyes. Contact treatment of the above-mentioned 1) or 2) was performed on a day of harvesting a fruit. In addition, also regarding a fruit undergoing no treatment of 1) or 2) (non-treatment), similar storage was performed, and the above-mentioned index was measured and assessed. Further, regarding non-treated fruit, the above-mentioned index before storage was also measured and assessed. Different alpha characters in Table indicate that a significant difference was recognized at a risk rate of 5% (multiple range test of Newman-Keuls). In Tables showing the results of the following Examples 1 to 10, “1-MCP” denotes 1-methylcyclopropene.
# [2] = system: Japanese pear (variety "Shinsei") fruit; assay: Quality deterioration of Japanese pear (Shinsei) fruit after storage, Example 2; settings: 1 ppm, after storage 25 degrees C 2 weeks
# Description: Using a Japanese pear (variety “Shinsei”) fruit (6 fruits were used per group) as an agricultural product, the following experiment was performed.
# (§1) 1) A fruit and 1-methylcyclopropene (concentration 1 ppm in a chamber) were placed into a sealed chamber, and contact-treated for 16 hours under a normal pressure.
# 2) A fruit was placed into a sealed chamber, and a pressure in the chamber was reduced to 12.5 kPa. Subsequently, 1-methylcyclopropene was placed therein to the concentration in the chamber of 1 ppm, and contact-treated for 1 minute or 10 minutes under the reduced pressure (12.5 kPa).
# (§2) The fruit which had been subjected to treatment of the above-mentioned 1) or 2) was stored at 25 degrees C for 2 weeks, and hardness of flesh and pH of a fruit juice which is an index for the content of an acid were measured. In addition, browning of flesh and fruit core, which is an index for an extent of storage disorder was assessed by naked eyes. Contact treatment of the above-mentioned 1) or 2) was performed on a day of harvesting a fruit. In addition, also regarding a fruit undergoing no treatment of 1) or 2) (non-treatment), similar storage was performed, and the above-mentioned index was measured and assessed. Further, regarding non-treated fruit, the above-mentioned index before storage was also measured and assessed. Different alpha characters in the same column after storage indicate that a significant difference was recognized at a risk rate of 5% (multiple range test of Newman-Keuls).
# [3] = system: Japanese pear (variety "Hosui") fruit; assay: Quality deterioration of Japanese pear (Hosui) fruit after storage, Example 4; settings: 1 ppm, after storage 25 degrees C 2 weeks
# Description: Using a Japanese pear (variety “Hosui”) fruit (6 fruits were used per group) as an agricultural product, the following experiment was performed.
# as §1
# 2) A fruit was placed into a sealed chamber, and a pressure in the chamber was reduced to 25.0 kPa. Subsequently, 1-methylcyclopropene was placed therein to the concentration in the chamber of 1 ppm, and contact-treated for 1 minute under the reduced pressure (25.0 kPa).
# as §2, with “measured.” for “measured. In addition, browning of flesh and fruit core, which is an index for an extent of storage disorder was assessed by naked eyes.”, “measured.” for “measured and assessed.”, “Table 4” for “the same column after storage”
# [4] = system: apple (variety "Orin") fruit; assay: Quality deterioration of apple (Orin) fruit after storage, Example 6; settings: 1 ppm, after storage 25 degrees C 3 weeks
# Description: Using an apple (variety “Orin”) fruit (6 fruits were used per group) as an agricultural product, the following experiment was performed.
# as §1
# 2) A fruit was placed into a sealed chamber, and a pressure in the chamber was reduced to 25.0 kPa. Subsequently, 1-methylcyclopropene was placed therein to the concentration in the chamber of 1 ppm, and contact-treated for 1 hour under the reduced pressure (25.0 kPa).
# 3) A fruit was placed into a sealed chamber. Subsequently, a pressure in the chamber was reduced to 25.0 kPa, and the fruit was kept in the chamber for 1 hour under the reduced pressure (25.0 kPa).
# The fruit which had been subjected to treatment of the above-mentioned 1), 2) or 3) was stored at 25 degrees C for 3 weeks, and hardness of flesh and mealy of flesh were measured. In addition, treatments of the above-mentioned 1), 2) and 3) were performed regarding fruits which had been stored for about 1 month after harvesting of fruit. In addition, also regarding a fruit undergoing no treatment of 1), 2) or 3) (non-treatment), similar storage was performed, and the above-mentioned index was measured. Further, regarding non-treated fruit, the above-mentioned index before storage was also measured. Different alpha characters in Table 6 indicate that a significant difference was recognized at a risk rate of 5% (multiple range test of Newman-Keuls).
# [5] = Reduced pressure (12.5 kPa) 30 minutes
# [6] = Reduced pressure (12.5 kPa) 1 hour
# [7] = Reduced pressure (12.5 kPa) 1 minute
# [8] = Reduced pressure (12.5 kPa) 10 minutes
# [9] = Reduced pressure (25.0 kPa) 1 minute
# [10] = Reduced pressure (25.0 kPa) 1 hour
smiles,measurement,setting,value
"CC1=CC1 [1-MCP, 1-methylcyclopropene]",Hardness of flesh,[1]; Normal pressure 1 hour,16.46a N
same,Presence or absence of browning,[1]; Normal pressure 1 hour,Presence
same,pH of fruit juice,[1]; Normal pressure 1 hour,5.07
same,Hardness of flesh,[1]; Normal pressure 16 hours,21.17b N
same,Presence or absence of browning,[1]; Normal pressure 16 hours,Absence
same,pH of fruit juice,[1]; Normal pressure 16 hours,5.07
same,Hardness of flesh,[1]; [5],20.58b N
same,Presence or absence of browning,[1]; [5],Slight
same,pH of fruit juice,[1]; [5],5.10
same,Hardness of flesh,[1]; [6],20.97b N
same,Presence or absence of browning,[1]; [6],Absence
same,pH of fruit juice,[1]; [6],4.97
same,Hardness of flesh,[2]; Normal pressure 16 hours,22.74c N
same,Presence or absence of browning,[2]; Normal pressure 16 hours,Absence
same,pH of fruit juice,[2]; Normal pressure 16 hours,4.92a
same,Hardness of flesh,[2]; [7],18.72b N
same,Presence or absence of browning,[2]; [7],Absence
same,pH of fruit juice,[2]; [7],4.90a
same,Hardness of flesh,[2]; [8],22.25c N
same,Presence or absence of browning,[2]; [8],Absence
same,pH of fruit juice,[2]; [8],5.00ab
same,Hardness of flesh,[3]; Normal pressure 16 hours,18.72 N
same,pH of fruit juice,[3]; Normal pressure 16 hours,4.37a
same,Hardness of flesh,[3]; [9],17.25 N
same,pH of fruit juice,[3]; [9],4.43a
same,Hardness of flesh,[4]; Normal pressure 16 hours,42.06ab N
same,Mealy of flesh,[4]; Normal pressure 16 hours,Slight
same,Hardness of flesh,[4]; [10],44.02b N
same,Mealy of flesh,[4]; [10],Slight
